From PMC11206207 (Chemical Science, 2024)
Numbered stars: 1 amine (or outer) side, 2 acyl side, 3 side chain; on linkers, the order of the positions; unused ones are H or OH. Bridge positions count the residues as written; N and C are the ends. Ends that are not written are not given here. Peptide text beside a SMILES is read from it. * marks the point of attachment. FITC = O=C1OC2(c3ccc(O)cc3Oc3cc(O)ccc32)c2ccc(NC(=S)*)cc21; X1 = O=C(C[*:2])Nc1cc(NC(=O)C[*:3])cc(C(=O)[*:1])c1; AEEA = NCCOCCOCC(=O)O

Assays:
[1] = test system: AGS cells; test: Cell viability assay; format: cell-based; details: 24 hours
[2] = biological target: TEAD4 (Homo sapiens, UniProt Q15561); test: Fluorescence polarization binding assay of FAM/FITC-labelled peptides to TEAD4
Chain of TEAD4 (Q15561 210-434): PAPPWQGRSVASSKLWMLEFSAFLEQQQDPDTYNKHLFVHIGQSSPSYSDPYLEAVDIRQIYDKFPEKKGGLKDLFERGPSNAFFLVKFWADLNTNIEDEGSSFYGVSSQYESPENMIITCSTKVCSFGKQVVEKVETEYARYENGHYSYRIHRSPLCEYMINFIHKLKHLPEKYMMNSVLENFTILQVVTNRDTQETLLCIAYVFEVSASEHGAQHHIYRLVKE

CC(=O)N[C@@H](CC(C)C)C(=O)N1CCC[C@H]1C(=O)N[C@H]1CCCCNC(=O)c2cc3cc(c2)NC(=O)CSC[C@H](NC(=O)[C@H](CO)NC(=O)[C@H](C(C)C)NC(=O)[C@H](Cc2c[nH]c4ccccc24)NC(=O)[C@H](CO)NC(=O)[C@H]([C@@H](C)O)NC(=O)[C@H](CC(C)C)NC(=O)CNC(=O)[C@H]([C@@H](C)O)NC1=O)C(=O)N[C@@H](Cc1c[nH]cn1)C(=O)N[C@@H](Cc1ccccc1)C(=O)N[C@@H](CC(C)C)C(=O)N[C@@H](CCCNC(=N)N)C(=O)N[C@@H](CO)C(=O)N[C@@H](CC(C)C)C(=O)N[C@H](C(=O)NCC(=O)NCC(=O)N[C@@H](CO)C(=O)NCC(N)=O)CSCC(=O)N3 [compound 16] (Ac-LPKTGLTSWVSCHFLRSLCGGSG-NH2; linker 3-12-19 via X1)
inhibitory activity on AGS cells ([1]; at 10 μM, in presence of PDPA nanocarrier): little inhibitory inhibition

CC(C)C[C@H](NC(=O)[C@H](CO)NC(=O)[C@H](Cc1ccccc1)NC(=O)[C@H](CC(=O)O)NC(=O)[C@H](Cc1c[nH]c2ccccc12)NC(=O)[C@H](Cc1ccccc1)NC(=O)[C@H](CO)NC(=O)[C@H](CCCCN)NC(=O)[C@@H]1CCCN1C(=O)[C@H](Cc1c[nH]c2ccccc12)NC(=O)[C@H](CCC(N)=O)NC(=O)CNC(=O)[C@@H](NC(=O)[C@H](CCCCN)NC(=O)[C@@H]1CCCN1C(=O)[C@H](CC(C)C)NC(=O)COCCOCCNC(=S)Nc1ccc2c(c1)C(=O)OC21c2ccc(O)cc2Oc2cc(O)ccc21)[C@@H](C)O)C(=O)NCC(=O)N[C@@H](CS)C(=O)NCC(=O)NCC(=O)N[C@@H](CO)C(=O)NCC(N)=O [linear version of 15] ({FITC-AEEA}-LPKTGQWPKSFWDFSLGCGGSG-NH2; N-terminus and C-terminus assumed)
Kd [2]: 6.3 µM

PKKKRKVDPKKKRKVDPKKKRKVNGLPKTGLTSWVSCHFLRSLCGGSG-NH2 (linker 28-37-44 via X1; C-terminus assumed) [16-NLS]
EC50 ([1]; read-out: cellular inhibitory activity EC50, AGS cells): 8.3 µM
